We go through 13 molecules from ChEMBL document CHEMBL4665817, “Immobilized Metal Affinity Chromatography as a Drug Discovery Platform for Metalloenzyme Inhibitors” (J Med Chem, 2020).

Holding throughout (settings): dose 2.55 µmol
The nature of experiment [1]: Binding affinity to Zinc ion assessed as performance ratio ratio by measuring product of accounting ratio and retention ratio at 2.55 umol by immobilized metal-ion affinity chromatography.
Experiment [2] in a line: Binding affinity to Nickel cation assessed as accounting ratio by measuring total compound detected/total compound adsorbed at 2.55 umol by immobilized metal-ion affinity chromatography.
Experiment [3] can be described thus: Binding affinity to cupric ion assessed as accounting ratio by measuring total compound detected/total compound adsorbed at 2.55 umol by immobilized metal-ion affinity chromatography.
The nature of experiment [4]: Binding affinity to ferric ion assessed as accounting ratio by measuring total compound detected/total compound adsorbed at 2.55 umol by immobilized metal-ion affinity chromatography.
Experiment [5] is described as follows: Binding affinity to Ferric ion assessed as retention ratio by measuring compound detected in elution fraction/total compound detected at 2.55 umol by immobilized metal-ion affinity chromatography.
A short description of experiment [6]: Binding affinity to zinc ion assessed as accounting ratio by measuring total compound detected/total compound adsorbed at 2.55 umol by immobilized metal-ion affinity chromatography.
Experiment [7] is described as follows: Binding affinity to cupric ion assessed as retention ratio by measuring compound detected in elution fraction/total compound detected at 2.55 umol by immobilized metal-ion affinity chromatography.
Experiment [8] can be described thus: Binding affinity to Ferric ion assessed as performance ratio ratio by measuring product of accounting ratio and retention ratio at 2.55 umol by immobilized metal-ion affinity chromatography.
Experiment [9] is described as follows: Binding affinity to Zinc ion assessed as retention ratio by measuring compound detected in elution fraction/total compound detected at 2.55 umol by immobilized metal-ion affinity chromatography.
A short description of experiment [10]: Binding affinity to Nickel cation assessed as performance ratio ratio by measuring product of accounting ratio and retention ratio at 2.55 umol by immobilized metal-ion affinity chromatography.
A short description of experiment [11]: Binding affinity to Nickel cation assessed as retention ratio by measuring compound detected in elution fraction/total compound detected at 2.55 umol by immobilized metal-ion affinity chromatography.
Experiment [12] can be described thus: Binding affinity to cupric ion assessed as performance ratio ratio by measuring product of accounting ratio and retention ratio at 2.55 umol by immobilized metal-ion affinity chromatography.
Experiment [13] in a line: Binding affinity to Gallium ion assessed as performance ratio ratio by measuring product of accounting ratio and retention ratio at 2.55 umol by immobilized metal-ion affinity chromatography.
Experiment [14] is described as follows: Binding affinity to Gallium ion assessed as retention ratio by measuring compound detected in elution fraction/total compound detected at 2.55 umol by immobilized metal-ion affinity chromatography.
Experiment [15] in a line: Binding affinity to gallium ion assessed as accounting ratio by measuring total compound detected/total compound adsorbed at 2.55 umol by immobilized metal-ion affinity chromatography.

Take `Nc1ccc(C(=O)O)c(O)c1`: the Ratio in experiment [1] turned out to be 0; in [2] it was 0.83; in [3], 0.87; in experiment [4], 0.15; in experiment [5] it was 0.51; in [6], 0.87. For the same molecule, the Ratio was 0 in experiment [7]; 0.08 in experiment [8]; 0 in experiment [9]; 0 in experiment [10]; 0 in [11]; 0 in experiment [12]. Besides, the Ratio came to 0.52 in [13], 0.74 in [14] and 0.69 in [15].

As for `Cc1[nH]c2ccccc2c1CCNCc1ccc(/C=C/C(=O)NO)cc1`, the Ratio in [1] amounted to 0.7; in [2], 0.84; in [3], 0.25; in experiment [4], 0.03; in [5], 1; in experiment [6], 0.7. The Ratio amounted to 1 in experiment [7]; 0.03 in [8]; 1 in experiment [9]; 0.84 in experiment [10]; 1 in [11]; 0.25 in experiment [12]. Also, the Ratio in experiment [13], in experiment [14] and in [15] was 0 throughout.

`O=C(CCCCCCC(=O)Nc1ccccc1)NO`: the Ratio in experiment [1] is 1.19; in experiment [2], 1.14; in experiment [3], 0.14; in experiment [4], 0; in [5], 0; in experiment [6], 1.19. Also, the Ratio in experiment [7] came out at 0.61; in experiment [8], 0; in experiment [9], 1; in experiment [10], 1.14; in [11], 1; in [12], 0.08. Besides, the Ratio in experiment [13] is 0.41; in experiment [14], 1; in [15], 0.41.

As for `Nc1ccccc1NC(=O)c1ccc(CNC(=O)OCc2cccnc2)cc1`, the Ratio in experiment [1] was 0.01; in experiment [2] it was 0.35; in experiment [3], 0.59; in experiment [4], 0.99; in experiment [5], 0; in [6] it was 0.83. Further, the Ratio in experiment [7] was 0.02; in experiment [8] it was 0; in experiment [9], 0.01; in [10], 0.21; in [11], 0.6; in experiment [12], 0.01. Besides, the Ratio in [13] was determined as 0.01; in experiment [14], 0.01; in [15], 0.98.

As for `C[C@H](N[C@@H](CCc1ccccc1)C(=O)O)C(=O)N1CCC[C@H]1C(=O)O`, the Ratio in [1] was 0.01; in experiment [2], 0.81; in experiment [3] it was 0.99; in [4], 1.02; in [5], 0; in experiment [6] it was 0.98. Besides, the Ratio amounted to 0 in experiment [7]; 0 in experiment [8]; 0.01 in experiment [9]; 0 in experiment [10]; 0 in [11]; 0 in experiment [12]. For the same molecule, the Ratio is 0 in experiment [13], 0 in [14] and 1 in experiment [15].

For the molecule `Cc1ccc(Cl)c(Nc2ccccc2C(=O)O)c1Cl`, the Ratio in experiment [1] came to 0; in [2] it was 0.96; in [3], 1.05; in experiment [4] it was 0.99; in [5], 0; in experiment [6] it was 0.97. Moreover, the Ratio in experiment [7], in experiment [8], in experiment [9], in experiment [10], in [11] and in experiment [12] was 0 each time. Moreover, the Ratio in experiment [13] amounted to 0; in experiment [14], 0; in experiment [15] it was 1.01.

Regarding `O=c1cccccc1O`, the Ratio was 0.97 in experiment [1]; 0.7 in experiment [2]; 1.26 in [3]; 0 in [4]; 0 in [5]; 0.97 in [6]. Besides, the Ratio was 1 in experiment [7]; 0 in [8]; 1 in [9]; 0.7 in [10]; 1 in [11]; 1.26 in [12]. Besides, the Ratio in experiment [13], in [14] and in experiment [15] was 0 each time.

In the case of `O=C(O)c1cc(/N=N/c2ccc(S(=O)(=O)Nc3ccccn3)cc2)ccc1O`, the Ratio in [1] amounted to 0.48; in [2], 0.89; in experiment [3] it was 1; in [4], 0.79; in [5], 1; in [6], 0.61. For the same molecule, the Ratio came out at 0.63 in experiment [7]; 0.79 in experiment [8]; 0.79 in [9]; 0.89 in experiment [10]; 1 in experiment [11]; 0.63 in experiment [12]. The Ratio was 0.82 in [13], 0.99 in [14] and 0.83 in experiment [15].

`C[C@H](CS)C(=O)N1CCC[C@H]1C(=O)O`: the Ratio in [1] turned out to be 1.17; in [2], 0; in [3], 0; in experiment [4], 0; in [5], 0; in experiment [6], 1.17. In addition, the Ratio was found to be 0 in [7]; 0 in experiment [8]; 1 in experiment [9]; 0 in experiment [10]; 0 in experiment [11]; 0 in [12]. The Ratio in [13], in experiment [14] and in [15] was 0 each time.

Take `COc1c(N2C[C@@H]3CCCN[C@@H]3C2)c(F)cc2c(=O)c(C(=O)O)cn(C3CC3)c12`: the Ratio in experiment [1] was 1.05; in experiment [2] it was 0.89; in experiment [3] it was 0.25; in experiment [4], 0.21; in [5], 0.73; in experiment [6], 1.05. The Ratio in [7] turned out to be 0.95; in experiment [8] it was 0.15; in experiment [9], 1; in experiment [10] it was 0.89; in experiment [11], 1; in experiment [12], 0.24. Further, the Ratio in experiment [13] was found to be 0.02; in experiment [14], 0.14; in experiment [15] it was 0.16.

Consider `C[C@H](CSC(=O)c1ccccc1)C(=O)N1C[C@@H](Sc2ccccc2)C[C@H]1C(=O)O`, for which the Ratio in experiment [1] came to 0.01; in [2], 1.29; in experiment [3], 1.51; in [4] it was 1.46; in experiment [5], 0; in experiment [6] it was 1.4. Besides, the Ratio is 0 in [7]; 0 in experiment [8]; 0.01 in experiment [9]; 0.01 in [10]; 0.01 in experiment [11]; 0 in experiment [12]. Moreover, the Ratio in experiment [13] was determined as 0.01; in experiment [14] it was 0.01; in [15] it was 1.43.

For the molecule `O=C(/C=C/c1cccc(S(=O)(=O)Nc2ccccc2)c1)NO`, the Ratio in experiment [1] turned out to be 1.21; in [2], 1.08; in experiment [3], 0.13; in [4], 0; in experiment [5], 0; in experiment [6] it was 1.21. Further, the Ratio in experiment [7] stood at 1; in experiment [8] it was 0; in experiment [9], 1; in experiment [10], 1.08; in experiment [11] it was 1; in experiment [12], 0.13. Besides, the Ratio in experiment [13] turned out to be 0.23; in experiment [14], 1; in experiment [15], 0.23.

On to `O=C(N[C@H]1CCS[C@H]2CCC[C@@H](C(=O)O)N2C1=O)[C@@H](S)Cc1ccccc1`, for which the Ratio in [1] was determined as 1.43; in experiment [2], 0.19; in [3], 0; in experiment [4], 0; in experiment [5] it was 0; in [6], 1.43. The Ratio in experiment [7] is 0; in [8], 0; in [9], 1; in [10], 0.19; in experiment [11], 1; in experiment [12] it was 0. Also, the Ratio in experiment [13], in experiment [14] and in experiment [15] was 0 in each case.
